Data: paper PMC3849131, “^18 F-click labeling and preclinical evaluation of a new ^18 F-folate for PET imaging” (EJNMMI Research, 2013)

Columns and labels:
[1] = In vitro metabolite/stability study in fetal calf serum; format: in vitro ADME; conditions: FCS, 37°C, 15, 30, 60 and 90 min
Experimental: A solution of [^18 F]12 (50 μL, approximately 5 MBq) was incubated with 500 μL of fetal calf serum (FCS) at 37°C and the mixture shaken at 900 rpm. The time points were set between 0 and 90 min using 500 μL of FCS and 50 μL of the radiotracer for each time point. Plasma proteins were precipitated by addition of cold acetonitrile (300 μL), followed by centrifugation (10,000 rpm, 10 min). An aliquot of each time point (15, 30, 60, and 90 min, 100 μL) was injected into the analytical radio-HPLC system for analytics.
The stability of the new radiotracer, [^18 F]12, was evaluated in the presence of FCS. For this purpose, [^18 F]12 was added to FCS and incubated at 37°C. At certain time points (15, 30, 60, and 90 min), aliquots were extracted and proteins removed by precipitation. The integrity of the radiotracer was determined by analytical radio-HPLC.

[2] = system: KB tumor-bearing mice; experiment: In vivo μPET imaging of KB tumor-bearing mice; conditions: scan 60 to 90 min p.i., approximately 13 MBq
Experimental: All animal experiments were approved by the local veterinary department and complied with Swiss and local laws on animal protection. Female CD-1 nude mice (Charles River, Sulzfeld, Germany) were fed with a folate-deficient rodent diet (Harlan Laboratories, Indianapolis, IN, USA). After an acclimatization period of 5 to 7 days, human KB tumor cells (5 × 10^6 cells in 0.1 mL sterile phosphate-buffered saline (PBS)) were inoculated subcutaneously on both shoulders of each mouse. Twelve days later, the animals were intravenously injected with [^18 F]12 (approximately 5 MBq, 100 μL). […] Animals were euthanized at the indicated time points, and selected organs and tissues were collected, weighed, and measured in a γ-counter. The incorporated radioactivity was expressed as percentage injected dose per gram (%ID/g) of tissue. PET/computed tomography (CT) experiments were performed with a dedicated small-animal PET/CT scanner (eXplore Vista PET/CT, Sedecal, Algete, Spain/GE Healthcare). Animals were intravenously injected with [^18 F]12 (approximately 13 MBq, 100 μL). For scanning, mice were anesthetized with isoflurane in an air/oxygen mixture. The PET scans were acquired from 60 to 90 min post-injection (p.i.) followed by a CT. After acquisition, PET data were reconstructed in user-defined time frames, and the fused datasets of PET and CT were analyzed with PMOD software (version 3.4). […]

## 16-(4-(((2-amino-4-oxo-3,4-dihydropteridin-6-yl)methyl)amino)benzamido)-1-(4-(2-(2-(2-[^18 F]fluoroethoxy)ethoxy)ethoxy)-1H-1,2,3-triazol-1-yl)-13-oxo-3,6,9-trioxa-12-azaheptadecan-17-oic acid [[^18 F]12]
[1]
  stability in fetal calf serum (radio-HPLC): No degradation or defluorination
[2]
  tumor visualization in μPET: facilitated visualization of FR-positive tumors on the maximum intensity projection
